Assay results: US20050020550A1, “Selective testicular 11beta-HSD inhibitors and methods of use thereof” (priority 2003, published 2005)

Experiments:
rat aortic rings = experiment: Contractile response of rat aortic rings to phenylephrine; conditions: for contractile response to phenylephrine: rings incubated 24 hours with corticosterone (10 nmol/L) and antisense oligomers (3 μmol/L); for effect of the steroid on contractile responses to phenylephrine: rat aortic rings incubated with the steroid, compared to controls
Protocol: Male Sprague-Dawley (150-200 g) rats were anesthetized with pentobarbital (50 mg/kg IP), and a median sternotomy was performed followed by the rapid removal of the thoracic aorta. The adventitia was removed, but the endothelium was left intact. The aorta was cut into 2-3 mm rings and individual rings were placed into a single well of a twenty four well culture plate and incubated at 37° C. under 95% O2-5% CO2. Each well contained 1 mL of DMEM/F12 containing 1% fetal bovine serum, streptomycin (100 μg/ml), penicillin (100 units/ml) and amphotericin (0.25 μg/ml). Aortic rings were incubated for 24 hours prior to contractility measurements with the following combinations of steroids, and antisense/nonsense oligonucleotides (3 μmol/L): • Corticosterone (10 nmol/L)+11β-HSD2 antisense or 11β-HSD2 nonsense oligomer • Corticosterone (10 nmol/L)+11β-HSD1 antisense or 11β-HSD1 nonsense oligomer • In 11-dehydrocorticosterone experiments with vehicle alone • 11-dehydrocorticosterone (100 nmol/L)+11β-HSD1 Antisense or 11β-HSD1 nonsense oligomer
Antisense phosphorothioate oligonucleotides, targeted to block either 11β-HSD2 or 11β-HSD1 gene expression, were obtained from Research Genetics, Huntsville Ala. Antisense oligomers complementary to 20 bp sequences spanning the ribosome binding/translation start site were used. Oligomer sequences were: 5′-CATAACTGCCGTCCAACAGC-3′ (SEQ ID No.: 2) for 11β-HSD1 Antisense and 5′-AGCCCAGCGCTCCATGACTT-3′ (SEQ ID No. 3) for 11β-HSD2 antisense. In control experiments the corresponding sense sequence was used as the nonsense oligomer. Antisense and nonsense oligomers were added directly to each well at 20 μg/10:1 sterile H2O per well for a final concentration of 3 μmol/L.
For contraction measurements, aortic rings were suspended by tungsten wires with 1 g of tension and placed in a vessel bath containing serum free DMEM/F 12 media at 37° C. aerated with 95% O2-5% CO2, at pH 7.4. Vessels were equilibrated for 20 minutes and then tested with phenylephrine (1 nmol/L−10 μmol/L). Although phenylephrine is structurally not a catecholamine, it is considered to be a functional catecholamine as it activates […]. Due to its favorable stability characteristics, it is widely used as a catecholamine substitute in experiments of this nature. The intensity of contraction was assessed by use of a Narishige micromanipulator and model FT03 force transducer (Grass Instrument Co. West Warwick, R.I.). Measurements were recorded on computer using the Labview 4.1 Virtual Instrument System (National Instruments, Austin, Tex.).

11β-HSD enzyme activity = experiment: Conversion of 3H-corticosterone to 11-dehydrocorticosterone by aortic rings; design: species or system rat; conditions: 24 hrs, 3H-corticosterone (10 nM) plus antisense (3 μM), compared to nonsense oligomers
Protocol: The effects of 11β-HSD1 and 11β-HSD2 antisense on the inter-conversion of ^3H-corticosterone and ^3H-11-dehydro-corticosterone by aortic rings was also determined. Rings (2-3 mm) obtained in a similar manner as those in the contraction studies, were incubated in 1 ml DMEM/F12 media containing 1% FBS at 37° C. under 95% O2-5% CO2 in 24-well culture plates. […] The amount of ^3H-11-dehydro-corticqsterone in the incubation medium after 24 hrs was then measured. The effects of 11β-HSD1 antisense/nonsense were measured in quadruplicate (n=6 aortic rings per well) and the effects of 11β-HSD2 antisense/nonsense in duplicate (n=8 aortic rings per well), • (ii) ^3H-11-dehydro-corticosterone (10 nmol/L)±11β-HSD1 antisense (3 μmol/L); this experiment was performed in duplicate (n=10 aortic rings per well). Control groups were incubated with the appropriate nonsense oligomer. ^3H-corticosterone in the incubation medium after 24 hrs was then measured. In this experiment, aortic rings were also analyzed for ^3H-corticosterone content. […]
(§1) Incubation media was collected, ran through a Sep-Pak and eluted with 3 mls of methanol, the eluate was then dried under nitrogen and reconstituted in 500:1 methanol. […] Steroids were observed by monitoring radioactivity on-line with a Packard Radiomatic Flo-One/Beta Series A-500 counter connected to a Dell Optiflex 425 S/L computer. […]

[1] = system: 11β-HSD1-reductase activity; experiment: Conversion of 3H-11-dehydrocorticosterone back to corticosterone by aortic rings; design: species or system rat
Protocol: The effects of 11β-HSD1 and 11β-HSD2 antisense on the inter-conversion of ^3H-corticosterone and ^3H-11-dehydro-corticosterone by aortic rings was also determined. Rings (2-3 mm) obtained in a similar manner as those in the contraction studies, were incubated in 1 ml DMEM/F12 media containing 1% FBS at 37° C. under 95% O2-5% CO2 in 24-well culture plates. Rings were incubated for 24 hours with: • (i) ^3H-corticosterone ([…])±11β-HSD2 or 11β-HSD1 antisense (3 μmol/L); control groups received nonsense oligomers. The amount of ^3H-11-dehydro-corticqsterone in the incubation medium after 24 hrs was then measured. The effects of 11β-HSD1 antisense/nonsense were measured in quadruplicate (n=6 aortic rings per well) and the effects of 11β-HSD2 antisense/nonsense in duplicate (n=8 aortic rings per well), • (ii) ^3H-11-dehydro-corticosterone (10 nmol/L)±11β-HSD1 antisense (3 μmol/L); this experiment was performed in duplicate (n=10 aortic rings per well). Control groups were incubated with the appropriate nonsense oligomer. ^3H-corticosterone in the incubation medium after 24 hrs was then measured. In this experiment, aortic rings were also analyzed for ^3H-corticosterone content. Rings from duplicate incubations (total n=20) were blotted dry, pooled and homogenized in 50% methanol using a Polytron. The homogenates were then centrifuged, extracted as below using Sep-Paks and injected onto a HPLC system for analysis.
as §1
Corticosterone and phenylephrine were obtained from Sigma (St Louis, Mo.), 11-dehydrocorticosterone from Research Plus (Bayonne, N.J.) and ^3H-steroids from New England Nuclear (Boston, Mass.). Where appropriate, data were expressed as mean±SE and analyzed using ANOVA and the Student's t test with Bonferroni modification. […]

11β-HSD1 Reductase = molecular target: T1, 11β-HSD1 Reductase (Rattus norvegicus, UniProt P16232); experiment: Inhibition of 11β-HSD1 reductase (Table 1); assay type: cell-based
T1 construct: an enzyme present in testicular Leydig cells; endogenous in cells; host or cells: freshly prepared rat Leydig cells
T1 sequence (P16232 whole entry): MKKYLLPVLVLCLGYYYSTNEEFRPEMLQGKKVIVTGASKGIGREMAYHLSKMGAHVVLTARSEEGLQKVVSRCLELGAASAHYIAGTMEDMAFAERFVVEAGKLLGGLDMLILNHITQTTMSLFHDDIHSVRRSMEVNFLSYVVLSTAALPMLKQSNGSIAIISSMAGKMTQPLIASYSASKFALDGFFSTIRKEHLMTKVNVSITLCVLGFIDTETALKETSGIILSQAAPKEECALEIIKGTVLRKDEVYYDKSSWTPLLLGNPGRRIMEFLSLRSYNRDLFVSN

11β-HSD1 Dehydrogenase = molecular target: T2, 11β-HSD1 Dehydrogenase (Rattus norvegicus, UniProt P16232); experiment: Inhibition of 11β-HSD1 dehydrogenase (Table 1); assay type: cell-based
T2 construct: an enzyme present in testicular Leydig cells; endogenous in cells; host or cells: freshly prepared rat Leydig cells
T2 sequence (P16232 whole entry): as above

11β-HSD2 Dehydrogenase = molecular target: T3, 11β-HSD2 Dehydrogenase (Homo sapiens, UniProt P80365); experiment: Inhibition of 11β-HSD2 dehydrogenase (Table 1); assay type: biochemical
T3 sequence (P80365 1-405): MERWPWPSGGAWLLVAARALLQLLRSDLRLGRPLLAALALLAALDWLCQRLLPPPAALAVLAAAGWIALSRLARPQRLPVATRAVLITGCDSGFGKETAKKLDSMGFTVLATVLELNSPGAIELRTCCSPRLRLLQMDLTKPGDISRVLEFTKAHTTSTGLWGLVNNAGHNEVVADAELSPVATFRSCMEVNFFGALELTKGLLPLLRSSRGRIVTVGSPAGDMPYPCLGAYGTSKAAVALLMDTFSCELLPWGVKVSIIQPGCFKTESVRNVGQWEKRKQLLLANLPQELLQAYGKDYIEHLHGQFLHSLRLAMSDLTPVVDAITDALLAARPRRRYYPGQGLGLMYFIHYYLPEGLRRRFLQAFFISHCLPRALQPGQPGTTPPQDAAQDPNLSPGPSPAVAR

[2] = with the 11β-HSD1-reductase inhibitor steroid

Compound | 11β-HSD1 Reductase (inhibition) (11β-HSD1 Reductase) | 11β-HSD1 Dehydrogenase (inhibition) (11β-HSD1 Dehydrogenase) | 11β-HSD2 Dehydrogenase (inhibition) (11β-HSD2 Dehydrogenase) | also measured
11β-HSD1 antisense: Antisense phosphorothioate oligonucleotide blocking 11β-HSD1 gene expression, 5′-CATAACTGCCGTCCAACAGC-3′ (antisense CATAACTGCCGTCCAACAGC; all phosphorothioate, sugars by position and methylation of C not given here; listed as Homo sapiens) | – | – | – | ability of 11-dehydro-corticosterone to amplify the contractile response to phenylephrine (rat aortic rings; rings incubated 24 hours with 11-dehydro-corticosterone (100 nmol/L) and antisense (3 μmol/L), compared to nonsense oligomers): attenuated; contractile response to phenylephrine (rat aortic rings; compared to nonsense oligomers): significantly increased; reduction in the conversion of corticosterone to 11-dehydrocorticosterone (11β-HSD enzyme activity): 21%; production of 3H-corticosterone from 3H-11-dehydrocorticosterone ([1]; incubation medium, 24 hours, antisense compared to nonsense oligomers): markedly reduced; production of 3H-corticosterone in aortic ring tissue ([1]; pooled aortic ring tissue (n=20), antisense compared to nonsense oligomers): markedly lower
11β-HSD2 antisense: Antisense phosphorothioate oligonucleotide blocking 11β-HSD2 gene expression, 5′-AGCCCAGCGCTCCATGACTT-3′ (antisense AGCCCAGCGCTCCATGACTT; all phosphorothioate, sugars by position and methylation of C not given here; listed as Homo sapiens) | – | – | – | contractile response to phenylephrine (rat aortic rings; compared to nonsense oligomers): statistically significant increase; reduction in the conversion of corticosterone to 11-dehydrocorticosterone (11β-HSD enzyme activity): 24%
C[C@]12CC[C@H](O)C[C@H]1CC[C@@H]1[C@H]2[C@@H](O)C[C@@]2(C)[C@@H]1CC[C@@H]2O [3α,5β-reduced- 11β-OH—testosterone] | No Inhibition | Moderate Inhibitor | No Inhibition | –
C[C@]12CCC(=O)C[C@@H]1CC[C@@H]1[C@@H]2[C@@H](O)C[C@]2(C)[C@@H](C(=O)CO)CC[C@@H]12 [5α-dihydro- corticosterone] | No inhibition | Potent Inhibitor | Potent Inhibitor | –
CC(=O)[C@H]1CC[C@@H]2[C@@H]3CCC4=CC(=O)CC[C@]4(C)[C@@H]3C(=O)C[C@]12C [11-Keto-progesterone] | Selective Inhibitor | No Inhibition | Potent Inhibitor | ability of 11-dehydro-corticosterone to amplify the contractile effects of phenylephrine (rat aortic rings; [2]): diminished; metabolism of 11-dehydro-corticosterone back to corticosterone [1, 2]: decreased
C[C@]12CC(=O)[C@@H]3[C@@H](CCC4=CC(=O)CC[C@@]43C)[C@H]1CC[C@@H]2O [11-Keto-testosterone] | Selective Inhibitor | No Inhibition | No Inhibition | –
C[C@]12CC(=O)[C@H]3[C@@H](CCC4=CC(=O)CC[C@@]43C)[C@@H]1CC[C@@H]2C(=O)CO [11-dehydro-corticosterone, reference compound] | – | – | – | effect of the steroid on contractile responses to phenylephrine (rat aortic rings): amplifies the contractile responses
C[C@]12C[C@H](O)[C@@H]3[C@@H](CCC4=CC(=O)CC[C@@]43C)[C@H]1CC[C@@H]2O [11β-OH—testosterone] | No Inhibition | Inhibitor (Non-Selective) | Inhibitor (Non-Selective) | –
C[C@H](CCC(=O)O)[C@H]1CC[C@H]2[C@@H]3[C@H](O)C[C@@H]4C[C@H](O)CC[C@]4(C)[C@H]3CC[C@]12C [chenodeoxycholic acid] | No Inhibition | Selective inhibitor | No Inhibition | –
C[C@]12C[C@H](O)[C@H]3[C@@H](CCC4=CC(=O)CC[C@@]43C)[C@@H]1CC[C@@H]2C(=O)CO [corticosterone, reference compound] | – | – | – | effect of the steroid on contractile responses to phenylephrine (rat aortic rings): amplified contractile responses
